According to paper PMC9586930, “Molecular insights into the distinct signaling duration for the peptide-induced PTH1R activation” (Nature Communications, 2022):
Positions count from the first letter of the chain named.

Columns and labels:
Settings in all cases: for ΔpEC50±SEM: relative to WT, n = 3 in triplicate; for ΔpEC50±SEM / Span±SEM: mean ± SEM; for Span±SEM: window between maximal response (Emax) and vehicle, n = 3
PTH1R I363A mutant = molecular target: T1, PTH1R I363A mutant (Homo sapiens, UniProt Q03431, I363A); experiment: cAMP accumulation assay (GloSensor), PTH1R I363A; format: cell-based
T1 construct: a flag-tag was fused to the N terminal of full-length PTH1R (WT or mutant); expressed in transfected cells; host or cells: HEK293T
T1 sequence (Q03431 27-593 I363A): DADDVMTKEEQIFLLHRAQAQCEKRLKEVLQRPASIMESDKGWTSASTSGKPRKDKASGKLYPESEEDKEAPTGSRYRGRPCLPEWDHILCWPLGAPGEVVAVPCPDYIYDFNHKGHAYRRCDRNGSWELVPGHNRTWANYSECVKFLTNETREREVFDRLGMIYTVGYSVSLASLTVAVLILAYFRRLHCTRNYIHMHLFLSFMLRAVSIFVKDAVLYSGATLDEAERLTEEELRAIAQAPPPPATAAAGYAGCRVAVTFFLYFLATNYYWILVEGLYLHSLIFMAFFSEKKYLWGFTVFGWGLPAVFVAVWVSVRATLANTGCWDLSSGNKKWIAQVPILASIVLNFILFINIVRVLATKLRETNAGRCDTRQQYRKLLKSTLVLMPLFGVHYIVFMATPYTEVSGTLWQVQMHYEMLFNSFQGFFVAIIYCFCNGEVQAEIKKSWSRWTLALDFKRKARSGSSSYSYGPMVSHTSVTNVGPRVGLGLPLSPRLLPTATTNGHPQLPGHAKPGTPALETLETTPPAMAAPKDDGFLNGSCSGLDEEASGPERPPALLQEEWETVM
Description: (§1) Human embryonic kidney 293 T (HEK293T, ATCC: CRL-1573) cells were transfected with a plasmid mixture consisting of pcDNA3.1-flag-PTH1R (WT or mutants) and the cAMP biosensor GloSensor-22F (Promega) at a ratio of 2:1 (see Supplementary Table 7 for a list of primers used in this study). After 24 h, transfected cells were plated onto a 384-well plate, which was treated with cell adherent reagent (Applygen) in advance. After another 12 h, cells were treated with Hank’s balanced salt solution for starvation and then incubated in CO2-independent media containing 4% GloSensor cAMP Reagent (Promega) at a volume of 5 μl per well and incubated for 20 min at RT before measurements for baseline luminescence (Spark Multimode microplate reader, TECAN). Next, test ligands were added at different concentrations from 10^−6 to 10^−13 M before second measurement. Finally, data were normalized to 100% of the maximal PTH (1-34) response for WT PTH1R using a sigmoidal dose-response in GraphPad Prism.
(§2) Statistical analyses were performed on at least three individual datasets and analysed using GraphPad Prism software. Bars represent differences in the calculated agonist potency (pEC50) and maximum agonist response (Emax) for each mutant relative to the WT receptor. Data are mean± s.e.m. from at least three independent experiments, performed in triplicates. ns, not significant, ^nsP > 0.01; ^*P < 0.01; ^**P < 0.001; ^***P < 0.0001 (one-way analysis of variance (ANOVA) followed by Dunnett’s test, compared with the response of the WT). For dose-response experiments, data were normalized and analyzed using nonlinear curve fitting for the log (agonist) versus response (three parameters) curves.

PTH1R Q440A mutant = molecular target: T2, PTH1R Q440A mutant (Homo sapiens, UniProt Q03431, Q440A); experiment: cAMP accumulation assay (GloSensor), PTH1R Q440A; format: cell-based
T2 construct: a flag-tag was fused to the N terminal of full-length PTH1R (WT or mutant); expressed in transfected cells; host or cells: HEK293T
T2 sequence (Q03431 27-593 Q440A): T1 sequence (Q03431 27-593 I363A) with A337I, Q414A
Description: as §1, §2

PTH1R T178A mutant = test system: T3, PTH1R T178A mutant; experiment: cAMP accumulation assay (GloSensor), PTH1R T178A; format: cell-based, human
T3 construct: a flag-tag was fused to the N terminal of full-length PTH1R (WT or mutant); expressed in transfected cells; host or cells: HEK293T
Description: as §1, with “After” for “Human embryonic kidney 293 T (HEK293T, ATCC: CRL-1573) cells were transfected with a plasmid mixture consisting of pcDNA3.1-flag-PTH1R (WT or mutants) and the cAMP biosensor GloSensor-22F (Promega) at a ratio of 2:1 (see Supplementary Table 7 for a list of primers used in this study). After”
as §2, with “Bars represent differences in the calculated agonist potency (pEC50) and maximum agonist response (Emax) for each mutant relative to the WT receptor.” left out

| Substance | span (from the WT) (PTH1R I363A mutant; PTH1R I3635.39A, replicate 1) | ΔpEC50 (from the WT) (PTH1R I363A mutant; PTH1R I3635.39A, replicate 1) | span (from the WT) (PTH1R I363A mutant; PTH1R I3635.39A, replicate 2) | ΔpEC50 (from the WT) (PTH1R I363A mutant; PTH1R I3635.39A, replicate 2) | span (from the WT) (PTH1R I363A mutant; PTH1R I3635.39A, replicate 3) | ΔpEC50±SEM (PTH1R I363A mutant) | ΔpEC50 (from the WT) (PTH1R I363A mutant; replicate 1) | ΔpEC50 (from the WT) (PTH1R I363A mutant; replicate 2) | ΔpEC50 (from the WT) (PTH1R I363A mutant; replicate 3) | Span±SEM (PTH1R I363A mutant) | span (from the WT) (PTH1R Q440A mutant; PTH1R Q4407.38A, replicate 1) | ΔpEC50 (from the WT) (PTH1R Q440A mutant; PTH1R Q4407.38A, replicate 1) | span (from the WT) (PTH1R Q440A mutant; PTH1R Q4407.38A, replicate 2) | ΔpEC50 (from the WT) (PTH1R Q440A mutant; PTH1R Q4407.38A, replicate 2) | span (from the WT) (PTH1R Q440A mutant; PTH1R Q4407.38A, replicate 3) | ΔpEC50 (from the WT) (PTH1R Q440A mutant; PTH1R Q4407.38A, replicate 3) | ΔpEC50±SEM (PTH1R Q440A mutant) | ΔpEC50 (from the WT) (PTH1R Q440A mutant; replicate 1) | ΔpEC50 (from the WT) (PTH1R Q440A mutant; replicate 2) | ΔpEC50 (from the WT) (PTH1R Q440A mutant; replicate 3) | other results |
| --- | --- | --- | --- | --- | --- | --- | --- | --- | --- | --- | --- | --- | --- | --- | --- | --- | --- | --- | --- | --- | --- |
| H-AVAEIQLMHQRAKWIQDARRRAFLHKLIAEIHTAEI-OH [LA-PTH, long-acting PTH analog, modified PTH/PTHrP hybrid] | 94.78 | -0.24 | 139.7 | -0.23 | 119.7 | -0.05±0.19 | -0.24 | -0.23 | 0.32 | 118.06±12.99 | 337.5 | -0.045 | 279.8 | -0.009 | 250.7 | 0.015 | -0.01±0.02 | -0.045 | -0.009 | 0.015 | Span±SEM (PTH1R Q440A mutant): 289.33±25.51; span (from the WT) (PTH1R T178A mutant; PTH1R T1781.30A, replicate 1): 104.1; ΔpEC50 (from the WT) (PTH1R T178A mutant; PTH1R T1781.30A, replicate 1): -0.079; span (from the WT) (PTH1R T178A mutant; PTH1R T1781.30A, replicate 2): 116.4; ΔpEC50 (from the WT) (PTH1R T178A mutant; PTH1R T1781.30A, replicate 2): 0; span (from the WT) (PTH1R T178A mutant; PTH1R T1781.30A, replicate 3): 180.3; ΔpEC50 (from the WT) (PTH1R T178A mutant; PTH1R T1781.30A, replicate 3): -0.07; ΔpEC50±SEM (PTH1R T178A mutant): -0.05±0.02; ΔpEC50 (from the WT) (PTH1R T178A mutant; replicate 1): -0.079; ΔpEC50 (from the WT) (PTH1R T178A mutant; replicate 2): 0; ΔpEC50 (from the WT) (PTH1R T178A mutant; replicate 3): -0.07; Span±SEM (PTH1R T178A mutant): 133.60±23.62 |
| H-AVSEHQLLHDKGKSIQDLRRRELLEKLL-{Aib}-KLHTA-NH2 [ABL, Abaloparatide, an analog of PTHrP, short-acting PTH1R agonist] | 145.9 | -0.54 | 170 | -0.46 | 139.9 | -0.57±0.08 | -0.54 | -0.46 | -0.722 | 151.93±9.20 | 252.6 | -1.026 | 278.7 | -0.991 | 338 | -1.125 | -1.05±0.04 | -1.026 | -0.991 | -1.125 | ΔpEC50 (from the WT) (PTH1R I363A mutant; PTH1R I3635.39A, replicate 3): -0.722; Span±SEM (PTH1R Q440A mutant): 289.77±25.27; span (from the WT) (PTH1R T178A mutant; PTH1R T1781.30A, replicate 1): 120.4; ΔpEC50 (from the WT) (PTH1R T178A mutant; PTH1R T1781.30A, replicate 1): -0.829; span (from the WT) (PTH1R T178A mutant; PTH1R T1781.30A, replicate 2): 180.3; ΔpEC50 (from the WT) (PTH1R T178A mutant; PTH1R T1781.30A, replicate 2): -0.74; span (from the WT) (PTH1R T178A mutant; PTH1R T1781.30A, replicate 3): 96.78; ΔpEC50 (from the WT) (PTH1R T178A mutant; PTH1R T1781.30A, replicate 3): -0.62; ΔpEC50±SEM (PTH1R T178A mutant): -0.73±0.06; ΔpEC50 (from the WT) (PTH1R T178A mutant; replicate 1): -0.829; ΔpEC50 (from the WT) (PTH1R T178A mutant; replicate 2): -0.74; ΔpEC50 (from the WT) (PTH1R T178A mutant; replicate 3): -0.62; Span±SEM (PTH1R T178A mutant): 132.49±24.86 |
| H-SVSEIQLMHNLGKHLNSMERVEWLRKKLQDVHNF-OH [PTH, Teriparatide, human PTH 1-34, long-acting peptide agonist of PTH1R] | 93.29 | -0.207 | 156.2 | -0.352 | 155.7 | -0.28±0.04 | -0.207 | -0.352 | -0.276 | 180.23±7.67 | 372.2 | -0.177 | 273.2 | -0.116 | 248 | -0.201 | -0.16±0.03 | -0.177 | -0.116 | -0.201 | ΔpEC50 (from the WT) (PTH1R I363A mutant; PTH1R I3635.39A, replicate 3): -0.276; Span±SEM (PTH1R Q440A mutant): 297.80±37.90; span (from the WT) (PTH1R T178A mutant; PTH1R T1781.30A, replicate 1): 113.4; ΔpEC50 (from the WT) (PTH1R T178A mutant; PTH1R T1781.30A, replicate 1): -0.148; span (from the WT) (PTH1R T178A mutant; PTH1R T1781.30A, replicate 2): 160.5; ΔpEC50 (from the WT) (PTH1R T178A mutant; PTH1R T1781.30A, replicate 2): -0.301; span (from the WT) (PTH1R T178A mutant; PTH1R T1781.30A, replicate 3): 167.8; ΔpEC50 (from the WT) (PTH1R T178A mutant; PTH1R T1781.30A, replicate 3): -0.188; ΔpEC50±SEM (PTH1R T178A mutant): -0.21±0.05; ΔpEC50 (from the WT) (PTH1R T178A mutant; replicate 1): -0.148; ΔpEC50 (from the WT) (PTH1R T178A mutant; replicate 2): -0.301; ΔpEC50 (from the WT) (PTH1R T178A mutant; replicate 3): -0.188; Span±SEM (PTH1R T178A mutant): 147.23±17.05 |
